Experimental data from ChEMBL document CHEMBL1201862, “PubChem BioAssay data set” (2004).
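Compound exposure: 48 hours, 5 concentrations, 96-well plates. GI50: concentration for 50% inhibition of growth.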 Activity calls are given as the source filed them. Cut-off read from the data, not from the text of the source: active = GI50 up to about 1.1 µM and inactive = higher.

Tests used:
Assay in all cases: inhibition of tumour cell growth, NCI panel, 48 h
UACC-257 = test system: UACC-257
HCT-116 = test system: HCT-116
SNB-78 = test system: SNB-78
DMS-114 = test system: DMS-114
KM12 = test system: KM12
OVCAR-5 = test system: OVCAR-5
SF-539 = test system: SF-539
MOLT-4 = test system: MOLT-4
M19-MEL = test system: M19-MEL
SW-620 = test system: SW-620
MCF7 = test system: MCF7
NCI/ADR-RES = test system: NCI/ADR-RES
XF498 = test system: XF498
SK-MEL-5 = test system: SK-MEL-5
HOP-62 = test system: HOP-62
HCC 2998 = test system: HCC 2998
SK-OV-3 = test system: SK-OV-3
NCI-H226 = test system: NCI-H226
SK-MEL-2 = test system: SK-MEL-2
NCI-H460 = test system: NCI-H460

Measured: GI50

C=C1C(=O)OC2CC(C)C3C4OC4C(O)C3(C)C(O)C12 (stereo not given)
inactive: UACC-257 37.8 µM | HCT-116 15.6 µM | SNB-78 13.5 µM | DMS-114 12.5 µM | KM12 23.5 µM | OVCAR-5 64 µM | SF-539 17.9 µM | MOLT-4 11.9 µM | M19-MEL 21.1 µM | SW-620 16.5 µM | MCF7 20.7 µM | NCI/ADR-RES 20.7 µM | XF498 22.2 µM | SK-MEL-5 38.5 µM | HOP-62 68.9 µM | HCC 2998 30.8 µM | SK-OV-3 44.9 µM | NCI-H226 30 µM | SK-MEL-2 25.9 µM | NCI-H460 19 µM

CCC1OC(=O)C(C)C(OC2CC(C)(O)C(O)C(C)O2)C(C)C(O)C(C)(O)CC(C)C(=O)C(C)C(O)C1C (stereo not given)
inactive: UACC-257 > 300 µM | HCT-116 > 300 µM | SNB-78 204 µM | DMS-114 > 300 µM | KM12 225 µM | OVCAR-5 > 292 µM | SF-539 > 300 µM | MOLT-4 > 300 µM | M19-MEL > 300 µM | SW-620 > 300 µM | MCF7 > 300 µM | NCI/ADR-RES > 300 µM | XF498 > 300 µM | SK-MEL-5 > 300 µM | HOP-62 299 µM | HCC 2998 > 300 µM | SK-OV-3 > 300 µM | NCI-H226 > 300 µM | SK-MEL-2 > 300 µM | NCI-H460 > 300 µM

CCC/C=C/C=C\C(=O)O[C@@H]1[C@@H](C)[C@]2(O)[C@@H]3C=C(C)C(=O)[C@H]3CC(COC(C)=O)=C[C@H]2[C@@H]2C(C)(C)[C@]12OC(C)=O
inactive: UACC-257 42.9 µM | HCT-116 20.4 µM | SNB-78 44.9 µM | DMS-114 45.1 µM | KM12 47.9 µM | OVCAR-5 66.5 µM | SF-539 41.4 µM | MOLT-4 10.2 µM | M19-MEL 32.2 µM | SW-620 11.2 µM | MCF7 37.8 µM | NCI/ADR-RES 50.7 µM | XF498 7.29 µM | SK-MEL-5 16.4 µM | HOP-62 1.89 µM | HCC 2998 14.8 µM | SK-OV-3 81.7 µM | NCI-H226 46.6 µM | SK-MEL-2 43.3 µM | NCI-H460 1.61 µM
